Results taken from patent US11702428B2, “Chemical compounds as inhibitors of interleukin-1 activity” (Genentech, Inc., priority 2017, dated 2023).
Read-outs that look alike come from different tables or passages of the source.

What was measured:
[1] = Pharmacokinetics in mice; assay type: in vivo, CD-1 Mice; conditions: for Cmax / clearance / half-life / AUC(0-t) / Vd: mouse, plasma; for AUC(0-t): read-out: AUC 0-24 hr; for Vd: read-out: Vz
Description: The intravenous dosing solutions were administered at 1 mg/kg and were made by dissolving the test article into the formulations shown below. The oral dosing suspensions or solutions were administered at 10 mg/kg and were made by dissolving the test article in the formulations shown below. Blood samples were collected into tubes containing either K2EDTA or sodium heparin and kept chilled on ice block or wet ice immediately following collection and during processing. After centrifugation, the resulting plasma samples were stored in a freezer at −80° C. until samples were analyzed. Pharmacokinetic parameters were determined following measurement of compound concentrations in plasma using standard bioanalytical methods at timepoints ranging from 0 to 24 hours.

[2] = target: T1, NLRP3 inflammasome (Homo sapiens, UniProt Q96P20); assay: NLRP3 inflammasome activation assay in Kupffer cells (LPS priming, nigericin), IL-1β/IL-18 by ELISA; assay type: cell-based; conditions: KCs; for IC50: LPS, nigericin, read-out: KC IL-1β IC50
T1 sequence (Q96P20 whole entry): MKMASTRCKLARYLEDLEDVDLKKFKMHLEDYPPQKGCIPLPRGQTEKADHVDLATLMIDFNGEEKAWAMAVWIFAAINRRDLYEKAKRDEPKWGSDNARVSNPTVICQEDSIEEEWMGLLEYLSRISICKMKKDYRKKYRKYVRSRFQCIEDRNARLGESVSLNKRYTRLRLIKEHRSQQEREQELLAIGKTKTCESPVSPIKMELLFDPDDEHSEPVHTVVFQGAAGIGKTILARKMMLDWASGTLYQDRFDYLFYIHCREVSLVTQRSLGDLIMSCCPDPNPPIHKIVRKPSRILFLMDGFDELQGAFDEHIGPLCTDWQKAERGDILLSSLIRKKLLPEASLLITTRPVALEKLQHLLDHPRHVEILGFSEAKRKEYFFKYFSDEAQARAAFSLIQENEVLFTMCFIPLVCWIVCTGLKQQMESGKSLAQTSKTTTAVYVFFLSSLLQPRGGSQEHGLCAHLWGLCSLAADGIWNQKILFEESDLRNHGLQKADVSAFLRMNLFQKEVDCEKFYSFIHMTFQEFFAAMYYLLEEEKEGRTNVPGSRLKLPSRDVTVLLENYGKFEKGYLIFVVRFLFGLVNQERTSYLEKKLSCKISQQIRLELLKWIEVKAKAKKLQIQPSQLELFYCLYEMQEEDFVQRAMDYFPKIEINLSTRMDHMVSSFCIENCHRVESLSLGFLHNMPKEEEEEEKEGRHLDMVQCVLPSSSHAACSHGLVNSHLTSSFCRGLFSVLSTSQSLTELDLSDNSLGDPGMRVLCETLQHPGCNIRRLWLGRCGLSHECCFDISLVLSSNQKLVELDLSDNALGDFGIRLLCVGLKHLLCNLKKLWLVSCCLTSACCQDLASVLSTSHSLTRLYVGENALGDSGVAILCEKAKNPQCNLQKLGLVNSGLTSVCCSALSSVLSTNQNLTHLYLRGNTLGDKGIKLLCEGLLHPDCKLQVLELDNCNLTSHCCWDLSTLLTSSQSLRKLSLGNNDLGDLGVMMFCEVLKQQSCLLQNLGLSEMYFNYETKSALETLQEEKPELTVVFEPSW
Excerpt: (§1) Some of the following assays were used to determine the inhibitory activity of the compounds on the NLRP3 inflammasome using a common inflammasome activation stimuli-nigericin.
Human Kupffer cells (KCs), specialized liver macrophages residing in […], were obtained by gradient isolation from liver specimens harvested post-mortem by Samsara Sciences. Cells were obtained through an IRB approved donor program by Samsara Sciences and all donors tested negative for bacterial and viral infections.
(§2) Cells were then stimulated with 10 uM Nigericin (Sigma Aldrich; InvivoGen) for 1.5 h. Plates were centrifuged at 1,500 rpm for 3 minutes to pellet cells and supernatant was transferred into new plates for subsequent experiments.
(§3) For ELISA assays cells were seeded into 96-well plates. Post study, supernatants were removed and the levels of mature IL-1β, IL-18 and TNFα (Quantikine ELISA, R&D systems) were measured in cell conditioned media by ELISA according to manufacturer's instructions.

[3] = system: LPS and nigericin stimulated cells; assay: cells; assay type: cell-based; conditions: Homo sapiens, read-out: CTG protective IC50
Description: Viability of compound treated cells is measured using CellTiter-Glo® assay (Promega, Madison, Wis.) that measures the ATP content of cells which is proportional to the number of live cells within a well. This is a counter-screen to establish that the reduction of IL-1β levels in LPS and nigericin stimulated and compound treated cells is not due to cytotoxicity, but rather through the inhibition of the inflammasome pathway. Compounds inhibiting NRLP3 inflammasome activation ultimately increase the viability of LPS and nigericin stimulated cells by blocking NLRP3 mediated pyroptosis that would otherwise lead to cell lysis.

[4] = target: T1, NLRP3 inflammasome; assay: NLRP3 inflammasome activation assay in PBMCs (LPS priming, nigericin), IL-1β by ELISA; assay type: cell-based; parameters: Human peripheral blood mononuclear cells (PBMCs); host or cells: primary human PBMCs from healthy donors; conditions: LPS, nigericin, read-out: PBMC IL-1β IC50
Description: as §1
Human peripheral blood mononuclear cells (PBMCs), consisting of lymphocytes (T, B and NK cells), monocytes and dendritic cells, were freshly isolated from human peripheral blood from healthy donors. Cells were obtained through an IRB approved donor program by iXCells Biotechnologies where all the donors were tested for bacterial and viral infections. Cells were purified from peripheral blood using ficoll gradient centrifugation.
as §2, §3

[5] = system: TNFα; assay: TNFα levels of LPS and nigericin stimulated cells (counter-screen); assay type: cell-based, human
Description: as §3
TNFα levels of LPS and nigericin stimulated cells is measured by HTRF assay (Cisbio, Bedford, Mass.). […] Measuring TNFalpha production also serves as a technical counter-screen to eliminate compounds that interfere with the HTRF reagents. Thus compounds that inhibit both IL-1β and TNFα levels are triaged for either being non-selective for inflammasome or interfering with the HTRF readout.

[6] = Human microsomal stability (Eh); assay type: in vitro ADME; conditions: hepatic extraction ratio; 0.5 mg/mL microsomal protein, 1 μM, NADPH; liver blood flow 20.7 mL/min/kg
Description: The stock solutions of test article and positive control were prepared at a concentration of 10 mM using DMSO as diluents. All stock solutions were then diluted to working concentrations at 0.25 mM with 70% acetonitrile. The cofactor used in this study was NADPH regenerating system, that was composed of 6.5 mM NADP, 16.5 mM G-6-P, 3 U/mL G-6-P D. The quench reagent was consisted of acetonitrile containing tolbutamide and propanolol (serve as internal standard). Incubation mixtures containing 0.5 mg/mL liver microsomal protein and […] test article/positive control in 100 mM potassium phosphate buffer.
The 0-minute samples were prepared by addition of an 80 μL aliquot of each incubation mixture to 300 μL quench reagent to precipitate proteins. The samples were vortexed, and then a 20 μL aliquot of the NADPH regenerating system was added in. The reaction was initiated by addition of 80 μL of the NADPH regenerating system to 320 μL of each incubation mixture. The final incubation conditions achieved in 400 μL are: 0.5 mg/mL microsomal protein, 1 μM test article/positive control, 1.3 mM NADP, 3.3 mM glucose 6 phosphate, 0.6 U/mL glucose 6 phosphate dehydrogenase. The mixtures were incubated in a 37° C. water bath with gentle shaking. A 100 μL aliquot of each mixture was removed at 10, 30, 90 minutes to a clean 96-well plate which contains 300 μL quench reagent to precipitate proteins, and centrifuged (4000×g, 10 min). 80 μL of supernatant are taken into 96-well assay plates pre-added with 160 μL ultrapure water, and then analyzed by LC-MS/MS. Hepatic extraction ratio (Eh) values were calculated from measured in vitro clearance assuming a human liver blood flow of 20.7 mL/min/kg. Eh values of <0.3 are indicative of compounds with favorable metabolic stability.

[7] = Male CD-1 Mice, PO, 10 mg/kg, 0.5% MC
[8] = Female CD-1 Mice, PO, 10 mg/kg, 0.5% MC, 0.25% Tween 80
[9] = LPS and nigericin stimulated cells, CellTiter-Glo

With O=C(Nc1c2c(cc3c1CCC3)CCC2)NS(=O)(=O)c1cnn2c1OCC1(CC1)C2 [B] the “Bioavailability (% F)” value [1, 7] was 100 % F, the Cmax ([1]; Male CD-1 Mice, IV, 1 mg/kg) was 11700 ng/mL and the clearance ([1]; Male CD-1 Mice, IV, 1 mg/kg) was 0.833 mL/min/kg. The half-life ([1]; Male CD-1 Mice, IV, 1 mg/kg) was 1.9 h, the AUC(0-t) ([1]; Male CD-1 Mice, IV, 1 mg/kg) was 20200 ng·h/mL and the Vd ([1]; Male CD-1 Mice, IV, 1 mg/kg) was 0.13 L/kg. It also gave a Cmax [1, 7] of 63000 ng/mL, a half-life [1, 7] of 1.9 h and an AUC(0-t) [1, 7] of 256000 ng·h/mL.
With CN(C)[C@H]1COc2c(S(=O)(=O)NC(=O)Nc3c4c(cc5c3CCC5)CCC4)cnn2C1 [C] the “Bioavailability (% F)” value [1, 7] was 33 % F, the Cmax ([1]; Male CD-1 Mice, IV, 1 mg/kg) was 5290 ng/mL and the clearance ([1]; Male CD-1 Mice, IV, 1 mg/kg) was 5.67 mL/min/kg. For the same molecule, the half-life ([1]; Male CD-1 Mice, IV, 1 mg/kg) was 1.3 h, the AUC(0-t) ([1]; Male CD-1 Mice, IV, 1 mg/kg) was 2990 ng·h/mL and the Vd ([1]; Male CD-1 Mice, IV, 1 mg/kg) was 0.64 L/kg. For the same molecule, the Cmax [1, 7] was 7530 ng/mL, the half-life [1, 7] was 1 h and the AUC(0-t) [1, 7] was 9950 ng·h/mL.
With O=C(Nc1c2c(cc3c1CCC3)CCC2)NS(=O)(=O)c1cnn2c1OCC1(COC1)C2 [Compound 5, N-((1,2,3,5,6,7-hexahydro-s-indacen-4-yl)carbamoyl)-5′,7′-dihydrospiro[oxetane-3,6′-pyrazolo[5,1-b][1,3]oxazine]-3′-sulfonamide] the “IL-1β production in Kupffer cells (FIG. 2)” value [2] was “inhibition” and the “IL-18 production in Kupffer cells (FIG. 2)” value [2] was “inhibition”.
For CN[C@H]1COc2c(S(=O)(=O)NC(=O)Nc3c4c(cc5c3CCC5)CCC4)cnn2C1 [D], the “Bioavailability (% F)” value [1, 8] was 69 % F, the Cmax ([1]; Female CD-1 Mice, IV, 1 mg/kg) was 3310 ng/mL and the clearance ([1]; Female CD-1 Mice, IV, 1 mg/kg) was 5 mL/min/kg. For the same molecule, the half-life ([1]; Female CD-1 Mice, IV, 1 mg/kg) was 1.6 h, the AUC(0-t) ([1]; Female CD-1 Mice, IV, 1 mg/kg) was 3400 ng·h/mL and the Vd ([1]; Female CD-1 Mice, IV, 1 mg/kg) was 0.69 L/kg. It also gave a Cmax [1, 8] of 13700 ng/mL, a half-life [1, 8] of 1.7 h and an AUC(0-t) [1, 8] of 23500 ng·h/mL.
With COC1CN([C@H]2COc3c(S(=O)(=O)NC(=O)Nc4c5c(cc6c4CCC6)CCC5)cnn3C2)C1 [E] the “Bioavailability (% F)” value [1, 8] was 53 % F, the Cmax ([1]; Female CD-1 Mice, IV, 1 mg/kg) was 2830 ng/mL and the clearance ([1]; Female CD-1 Mice, IV, 1 mg/kg) was 10.7 mL/min/kg. The half-life ([1]; Female CD-1 Mice, IV, 1 mg/kg) was 1.6 h, the AUC(0-t) ([1]; Female CD-1 Mice, IV, 1 mg/kg) was 1570 ng·h/mL and the Vd ([1]; Female CD-1 Mice, IV, 1 mg/kg) was 1.47 L/kg. The Cmax [1, 8] was 8620 ng/mL, the half-life [1, 8] was 1.9 h and the AUC(0-t) [1, 8] was 8270 ng·h/mL.
In the case of O=C(Nc1c2c(cc3c1CCC3)CCC2)NS(=O)(=O)c1cnn2c1OCCCC2 [drawing 515], the IC50 [3, 9] is reported as under 100 nM and the IC50 [4] is reported as under 100 nM.
CC1CCOc2c(S(=O)(=O)NC(=O)Nc3c4c(cc5c3CCC5)CCC4)cnn21 (stereo not shown) [drawing 516] gave an IC50 [3, 9] of under 100 nM and an IC50 [4] of under 100 nM.
In the case of O=C(Nc1c2c(cc3c1CCC3)CCC2)NS(=O)(=O)c1cnn2c1OCC(F)C2 (stereo not shown) [drawing 517], the IC50 [3, 9] is reported as under 100 nM and the IC50 [4] is reported as 100 to 1000 nM.
For COC1COc2c(S(=O)(=O)NC(=O)Nc3c4c(cc5c3CCC5)CCC4)cnn2C1 (stereo not shown) [drawing 518], the IC50 [3, 9] was under 100 nM, the IC50 [2] was under 100 nM and the “TNFα IC50 (PBMC or KC)” value [5] was “No Curve”. The IC50 [4] was under 100 nM.
For CC1CCn2ncc(S(=O)(=O)NC(=O)Nc3c4c(cc5c3CCC5)CCC4)c2O1 (stereo not shown) [drawing 519], the IC50 [2] was under 100 nM, the “TNFα IC50 (PBMC or KC)” value [5] was “No Curve” and the IC50 [4] was 100 to 1000 nM.
In the case of O=C(Nc1c2c(cc3c1CCC3)CCC2)NS(=O)(=O)c1cnn2c1OCC1(CC1)C2 [drawing 528], the “Human Microsomal Stability (Eh)” value [6] is reported as 0.6, the IC50 [3, 9] is reported as under 100 nM and the IC50 [2] is reported as under 100 nM. For the same molecule, the IC50 [4] was under 100 nM.
For CN(C)[C@H]1COc2c(S(=O)(=O)NC(=O)Nc3c4c(cc5c3CCC5)CCC4)cnn2C1 [drawing 541], the “Human Microsomal Stability (Eh)” value [6] was 0.2, the IC50 [3] was under 100 nM and the “TNFα IC50 (PBMC or KC)” value [5] was “No Curve”.
With CN[C@H]1COc2c(S(=O)(=O)NC(=O)Nc3c4c(cc5c3CCC5)CCC4)cnn2C1 [drawing 566] the “Human Microsomal Stability (Eh)” value [6] was under 0.1, the IC50 [3] was under 100 nM and the “TNFα IC50 (PBMC or KC)” value [5] was “No Curve”.
